Results from patent US7223793B2, “Phenolic acid derivatives and composition for preventing or treating blood lipid level-related diseases comprising the same” (Bionutrigen Co., Ltd., priority 2001, dated 2007).
Marks after values point to notes of the source that are not given here.

Legend:
[1] = tested on: Sprague-Dawley rats; experiment: Effect on blood lipid level in rats fed high-cholesterol diet (Experimental Example 1); assay type: in vivo, rat; conditions: rats on 1% cholesterol diet, 5 weeks; for Atherogenic index (AI): (total cholesterol − HDL cholesterol)/HDL cholesterol; for HDL-cholesterol/total cholesterol / HDL-cholesterol / Total cholesterol / Triglyceride: plasma, 0.02% lovastatin or 0.046% BN30028 in diet; for HDL-cholesterol / Total cholesterol / Triglyceride: average ± standard deviation
Source text: 30 of 4-week-old male white Sprague-Dawley rats (Bio Genomics Inc., Korea), each weighing about […], were divided into three groups by a randomized block design. The rats of the three groups were fed with three different high-cholesterol diets, i.e., AIN-76 laboratory animal diets (TEKLAD premier Co., Madison, Wis., U.S.A.) containing 1% cholesterol (Control group), 1% cholesterol plus 0.02% lovastatin (Choongwae Pharma. Corp., Korea) and 1% cholesterol plus 0.046% BN30028, respectively, as shown in Table I.
The rats were allowed free access to the specified diets and water for 5 weeks and the ingestion amounts were recorded daily. The rats were weighed every 5 days, and then the record was analyzed.
Blood samples were taken from vena hypogastrica of the rats of the three dietary groups raised in Step 1 and centrifuged to separate plasma. The total cholesterol level was measured by using a diagnosis kit purchased from Sigma (USA), Cat. No.: C0534, applying the method of Allain et al. (Allain et al., Clin. Chem., 20, 470-475 (1974)). The HDL fraction was separated by using a kit purchased from Sigma, Cat. No.: 352-1 applying the heparin-manganese precipitation method (Waenic R. G. and Albers J. J., J Lipid Res., 19, 65-76 (1978)) and the HDL-cholesterol level was measured by using a kit purchased from Sigma, Cat. No.: C9908. The triglyceride level was measured using a kit purchased from Sigma, Cat. No.: 336-10) applying the lipase-glycerol phosphate oxidase method (McGowan, M. W. et al., Clin. Chem., 29, 538-542(1983)). All the data are expressed by average±standard deviation.

[2] = tested on: New Zealand White rabbits; experiment: Fatty streak in the main artery of cholesterol-fed rabbits (Experimental Example 2); assay type: in vivo, rabbit; conditions: 8 weeks; for Proportion of stained region (fatty streak region) per unit area of the main artery: 1% cholesterol + RC4 diet, lovastatin 1 mg/kg or BN30028 0.05 wt %, Oil Red O, average ± standard deviation; for Proportion of the fatty streak region compared to the control group / Arterial endothelium, macrophage-lipid complex / atherosclerotic plaque (photographs): 1% cholesterol diet; for Arterial endothelium, macrophage-lipid complex / atherosclerotic plaque (photographs): FIGS. 1a-1c
Description: The rabbits raised in Step 1 were sacrificed and their chests were incised. The incision was performed downward to the diaphragm along the aortic arch and the fat surrounding the main artery was removed. The main artery was incised in the middle along the longitudinal axis from the second aortic intercostal artery anastomoses to the seventh aortic intercostal artery anastomoses and fixed with 10% neutral buffered formalin for 24 hours. Then, the incised main artery was pinned to a dish for staining of fatty streaks according to the method of Esper, E., et al. (J. Lab. Clin. Med., 121, 103-110 (1993)). The staining carried out by washing the artery three times with propylene glycol for 2 minutes respectively. The artery was stained for 30 minutes with a saturated solution of Oil Red O (ORO, Sigma Co.) dissolved in propylene glycol. Thereafter, the artery was washed twice with 85% propylene glycol for 3 minutes respectively to remove the remaining staining solution and, then once with physiological saline. The artery was photographed and the photograph was traced. The proportion (%) of stained region (fatty streak region) per unit area of the main artery was determined with an image analyzer (LEICA, Q-600, Germany). The significant differences between the test groups were tested by student t-test using Microsoft excel (version 7.0) program

[3] = tested on: ACAT; experiment: ACAT activity in liver microsomes of treated rabbits (Experimental Example 4); assay type: in vivo, rabbit; conditions: liver microsomes of rabbits fed 8 weeks; for ACAT activity: lovastatin 1 mg/kg or BN30028 0.05 wt %, average ± standard deviation; for ACAT activity inhibition: relative to control group
Description: The rabbits raised as described in step 1 of the Experimental Example 2 were sacrificed by decapitation and the livers were removed from the rabbits. 1 g of the liver tissue taken from each rabbit was homogenized in 5 ml of homogenization medium (0.1 M KH2PO4, pH 7.4, 0.1 mM EDTA and 10 mM β-mercaptoethanol). The homogenate was centrifuged at 3,000×g for 10 minutes at 4° C. and the supernatant thus obtained was centrifuged at 15,000×g for 15 minutes at 4° C. to obtain a supernatant. The resulting supernatant was put into an ultracentrifuge tube (Beckman) and centrifuged at 100,000×g for 1 hour at 4° C. to obtain microsomal pellets, which were then suspended in 3 ml of the homogenization medium and centrifuged at 100,000×g for 1 hour at 4° C. The pellets thus obtained were suspended in 1 ml of the homogenization medium. The protein concentration of the resulting suspension was determined by Lowry's method and then adjusted to the range of 4 to 8 mg/ml. The resulting suspension was stored in a deep freezer (Biofreezer, Forma Scientific Inc.).
6.67 μl, of 1 mg/ml cholesterol solution in acetone was mixed with 6 μl of 10% Triton WR-1339 (Sigma Co.) in acetone. Acetone was removed from the mixture by evaporation under a nitrogen flow. To the resulting mixture, distilled water was added to adjust the concentration of cholesterol to 30 mg/ml.
To 10 μl of the resulting aqueous cholesterol solution, 10 μl of 1 M KH2PO4 (pH 7.4), 5 μl of 0.6 mM bovine serum albumin (BSA), 10 μl of the microsome solution obtained in Step 1 and 55 μl of distilled water (total 90 μl) were added. The mixture was pre-incubated in a water bath at 37° C. for 30 minutes.
10 μl of (1-^14C) oleyl-CoA solution (0.05 μCi, final concentration: 10 μM) was added to the pre-incubated mixture and the resulting mixture was incubated in a water bath at 37° C. for 30 minutes. 500 μl of isopropanol:heptane mixture (4:1 (v/v)), 300 μl of heptane and 200 μl of 0.1 M KH2PO4 (pH 7.4). were added to the mixture. The mixture was mixed vigorously using a vortex mixer and then allowed to stand at room temperature for 2 minutes.
200 μl of the resulting supernatant was put in a scintillation bottle and 4 ml of scintillation fluid (Lumac) was added thereto. The mixture was assayed for radioactivity with 1450 Microbeta liquid scintillation counter (Wallacoy, Finland). ACAT activity was calculated as picomoles of cholesteryl oleate synthesized per minute per mg protein (pmoles/min/mg protein). All the data are expressed by average±standard deviation(p<0.05).

| SMILES | Atherogenic index (AI) [1] | HDL-cholesterol/total cholesterol [1] | HDL-cholesterol [1] | Total cholesterol [1] | Triglyceride [1] | Increase of triglyceride as compared to the control group [1] | Reduction of total plasma cholesterol level as compared to the control group [1] | Proportion of stained region (fatty streak region) per unit area of the main artery [2] | Proportion of the fatty streak region compared to the control group [2] | Arterial endothelium, macrophage-lipid complex / atherosclerotic plaque (photographs) [2] | ACAT activity [3] | ACAT activity inhibition [3] | Reduction of triglyceride as compared to the control group [1] |
| --- | --- | --- | --- | --- | --- | --- | --- | --- | --- | --- | --- | --- | --- |
| CC[C@H](C)C(=O)O[C@H]1C[C@@H](C)C=C2C=C[C@H](C)[C@H](CC[C@@H]3C[C@@H](O)CC(=O)O3)[C@H]21 [Lovastatin, reference compound] | 2.3 ± 0.2 | 30.2 ± 0.5% | 23.4 ± 0.4 mg/dL | 77.4 ± 1.8 mg/dL | 69.0 ± 4.7 mg/dL | 25% | 6% | 18.2 ± 10.4^b % | significantly reduced | clean | 96.2 ± 21.3 pmol/minute/mg protein | 23.8% | – |
| COC(=O)C(Cc1ccccc1)NC(=O)CCc1ccc(O)c(O)c1 (stereo not drawn) [BN30028, 2-[3-(3,4-dihydroxyphenyl)propionylamino]-3-phenyl propionic acid methyl ester] | 1.84 ± 0.2 | 35.1 ± 0.6% | 25.6 ± 0.6 mg/dL | 72.8 ± 3.7 mg/dL | 47.6 ± 1.6 mg/dL | – | 12% | 16.1 ± 9.6^b % | significantly reduced | clean | 93.9 ± 21.5 pmol/minute/mg protein | 26.2% | 15% |
